Laboratory results: patent US20160367622A1, “AGONISTS OF GUANYLATE CYCLASE USEFUL FOR THE TREATMENT OF OPIOID INDUCED DYSFUNCTIONS” (priority 2013, published 2016)
“Also recorded” adds a separate entry of the source. Where two headings read alike, the source gives them in different places. Positions of bridges follow the written chain, without caps; N, C: chain ends. Non-standard residues stand in square brackets, D forms with d. Residues, ends and D or L forms follow the SMILES beside them.

Key:
[1] = test system: female Sprague-Dawley CD rats; test: methadone-induced constipation in rats (fecal output); format: in vivo, rat; settings: methadone 2.5 mg/kg IP daily 9 days; SP-333 2.5, 5.0 and 10 mg/kg oral daily
[2] = test system: female Sprague-Dawley rats; test: morphine-induced delay in rat GI transit (charcoal meal); format: in vivo; settings: 2.5 mg/kg morphine IP
Description: (§1) Animals: All study procedures were conducted under a study outline approved by the Institutional Animal Care and Use Committee of MB Research Labs (Spinnerstown, Pa.) or Lampire Biological Laboratories (Pipersville, Pa.). Seven to eight week old female Sprague-Dawley rats [Crl:CD(SD)], weighing between ˜180-210 grams, were obtained from Charles River Laboratories and allowed to acclimate for a week. Animals were maintained on a 12 hour light-dark cycle. For intestinal tissue collection and evaluation of GI transit, rats were fasted for at least 18 hours before the experiment, with free access to water.
(§2) The ability of opioids to delay GI transit in rats was tested by either administering 0 (vehicle) 0.25, 1 and 2.5 mg/kg of morphine or 0 (vehicle), 0.25, 2.5 and 5 mg/kg of methadone (1.5 ml/kg dose volume) by IP injection. Water served as vehicle control. Ten minutes later, a 2 mL charcoal meal consisting of 10% activated charcoal (Sigma-Aldrich, St. Louis, Mo.) and 10% gum Arabic (Sigma-Aldrich, St. Louis, Mo.) in water was administered via oral gavage. Rats were euthanized 10 min after the charcoal meal via IP injection of 150 mg/kg Beuthanasia-D solution (sodium pentobarbital, 390 mg/mL). The small intestine was removed and the total length from the pyloric sphincter to the ileocecal junction was recorded, as well as the distance traveled by the leading edge of the charcoal. Intestinal transit was determined by calculating the ratio (expressed as a percentage) of the distance between the pyloric sphincter and the leading edge of the charcoal to the distance between the pyloric sphincter and the ileocecal junction.
To evaluate the ability of SP-333 to reverse morphine induced delayed GI transit, animals were administered 2.5 mg/kg of morphine by IP injection followed immediately by oral gavage of 0 (vehicle), 0.5, 2.5, 5 and 50 mg/kg of SP-333 (1.5 ml/kg dose volume). Water served as vehicle control. Charcoal meal was administered ten minutes later and animals were euthanized ten minutes after the charcoal meal and intestinal transit was calculated as described above.

[3] = test system: opioid naïve animals (rats); test: GI transit after single oral gavage dose in opioid naïve rats; format: in vivo, rat
T84 cells = test: cyclic GMP and cyclic AMP production in T84 cells; format: cell-based, human; settings: 0.01, 0.1, 1, or 10 μM SP-333
Description: FIG. 3A-B is a series of graphs showing that SP-333 stimulates cyclic GMP, but not cyclic AMP production in T84 cells. Cells were treated with either control, IBMX, SP-333 ([…]), forskolin (FSK) or FSK+IBMX.
The results are depicted in FIG. 3A-B. T84 cells were treated with either control, IBMX, forskolin (FSK), or 0.01, 0.1, 1, or 10 μM SP-333, and the production of cGMP or cAMP measured (pmoles/well). CPT-cGMP and CPT-cAMP both stimulate Isc across T84 cell monolayers.

[4] = test system: female Sprague-Dawley rats; test: methadone-induced delay in rat GI transit (charcoal meal); format: in vivo; settings: 2.5 mg/kg methadone IP
Description: as §1, §2
To evaluate the ability of SP-333 to reverse methadone induced delayed GI transit, animals were administered 2.5 mg/kg of methadone by IP injection. Ten minutes later, an oral gavage of 0 (vehicle), 0.1, 0.5, 2.5, 5 and 50 mg/kg of SP-333 (1.5 ml/kg dose volume) was administered followed immediately by a 2 mL oral gavage of the charcoal meal. Ten minutes after the charcoal meal, animals were euthanized and intestinal transit was calculated as described above.

[5] = randomized 4-week study in OIC: SP-333 plasma levels; format: in vivo, human; settings: for level at 0.5 h / level at 1 h: human, plasma, 6 mg, SP-333: 6 mg, read-out: SP-333 concentration; for level at 0.5 h: time 30; for level at 1 h: time 60
From the text: To assess the safety and tolerability of SP-333. To evaluate the pharmacodynamic effects of SP-333. To evaluate the pharmacokinetic properties of SP-333.

[6] = test system: female Sprague-Dawley CD rats; test: GI transit delay induced by repeated methadone administration in rats; format: in vivo, rat; settings: SP-333 oral daily
Description: The ability of SP-333 to alleviate GI transit delay induced by repeated methadone administration was also evaluated in the similar manner. Female Sprague-Dawley CD rats 7 to 8 weeks of age (n=7/group) received via IP injection 16 doses of methadone (once daily; 7 doses @ 5 mg/kg and 9 doses @ 2.5 mg/kg). Ten minutes following each methadone dose, each group received an oral gavage of vehicle, 2.5, and 5 mg/kg of SP-333. At the end of the dosing regimen, animals were fasted overnight and GI transit was evaluated as described above.

[7] = then SP-333 0.5 mg/kg oral gavage
[8] = then SP-333 2.5 mg/kg oral gavage
[9] = then SP-333 5 mg/kg oral gavage
[10] = then SP-333 50 mg/kg oral gavage
[11] = 30 and/or 60 minute time points

CC(C)C[C@@H]1NC(=O)[C@H](CCC(=O)O)NC(=O)[C@@H](NC(=O)[C@H](CCC(=O)O)NC(=O)[C@H](CC(=O)O)NC(=O)[C@H](N)CC(N)=O)CSSC[C@@H]2NC(=O)[C@H](C)NC(=O)[C@H](C(C)C)NC(=O)[C@H](CC(N)=O)NC(=O)[C@H](C(C)C)NC(=O)[C@H](CSSC[C@@H](C(=O)N[C@H](CC(C)C)C(=O)O)NC(=O)CNC(=O)[C@H]([C@@H](C)O)NC2=O)NC1=O [SP-333, dAsn^1-Asp^2-Glu^3-Cys^4-Glu^5-Leu^6-Cys^7-Val^8-Asn^9-Val^10-Ala^11-Cys^12-Thr^13-Gly^14-Cys^15-dLeu^16] (H-[dN]DECELCVNVACTGC[dL]-OH; disulfide 4-12, 7-15)
average number of pellets compared to the methadone dosed group [1]: higher compared to the methadone dosed group
increase in Isc (T84 cells monolayer; 0.01-10 μM at mucosal surface of T84 cells): concentration-dependent increase in Isc approaching saturation at 10 μM
stimulation of Isc (T84 cells monolayer; treatment from the basolateral chamber, T84 monolayer): did not stimulate Isc
GI transit in morphine-treated rats [2, 7]: 27%
GI transit in morphine-treated rats [2, 8]: 37%
GI transit in morphine-treated rats [2, 9]: 46%
GI transit in morphine-treated rats [2, 10]: 48%
increase in small intestinal (GI) transit compared to vehicle controls ([3]; 0.05 mg/kg single oral gavage): 5.6%
increase in small intestinal (GI) transit compared to vehicle controls ([3]; 0.5 mg/kg single oral gavage): 13%
increase in small intestinal (GI) transit compared to vehicle controls ([3]; 5 mg/kg single oral gavage): 23%
cAMP production (T84 cells): not cAMP synthesis; also recorded: does not result in an increase of cAMP production
cGMP production (T84 cells): stimulates cGMP synthesis; also recorded: concentration dependent increase in cGMP levels
GI transit in methadone-treated rats [4, 7]: 40%
GI transit in methadone-treated rats [4, 8]: 39%
GI transit in methadone-treated rats [4, 9]: 44%
GI transit in methadone-treated rats [4, 10]: 52%
maximum plasma level value observed [5, 11]: 2.71 ng/mL
number of patients in whom SP-333 plasma levels were observed [5, 11]: 4 patients
level at 0.5 h ([5]; subject 006-004, visit week 1): 2.71 ng/mL
level at 1 h ([5]; subject 006-004, visit week 1): 1.77 ng/mL
level at 0.5 h ([5]; subject 007-013, visit week 1): 1.38 ng/mL
level at 0.5 h ([5]; subject 026-016, visit week 4): 1.88 ng/mL
level at 1 h ([5]; subject 026-016, visit week 4): 1.5 ng/mL
level at 0.5 h ([5]; subject 047-002, visit week 4): 1.21 ng/mL
increase in Isc (rat jejunum tissue; 0.01-10 μM at mucosal surface of rat jejunum): concentration-dependent increase in Isc approaching saturation at 10 μM
stimulation of Isc (rat jejunum tissue; treatment from the basolateral chamber, rat jejunum tissues): did not stimulate Isc
GI-transit delay caused by repeated methadone dosing ([6]; 16 daily methadone doses (7 at 5 mg/kg, 9 at 2.5 mg/kg)): normalized GI transit; also recorded: relieved the GI-transit delay; also recorded: relieves methadone-induced GI transit delay; also recorded: statistically significant improvement in GI transit delay
GI-transit delay caused by repeated methadone dosing ([6]; methadone 2.5 mg/kg IP daily 9 days): relieved the GI-transit delay
